Laboratory results: paper PMC3130785, “Small Compound 6-O-Angeloylplenolin Induces Mitotic Arrest and Exhibits Therapeutic Potentials in Multiple Myeloma” (PLoS ONE, 2011)

How the values were obtained:
[1] = test system: MM.1S cells; test: MTT assay with IL-6, IGF-I or BMSCs; format: cell-based, human; conditions: 48 h
Method: U266, RPMI 8226 cells (1×10^4), primary CD138+ cells, PBMCs (5×10^4), and BMSCs (1×10^4) were cultured in 96-well dishes and incubated without or with 6-OAP at indicated concentration for 48 h. MM.1S and MM.1R cells (2×10^4) were seeded into 96-well dishes and pre-cultured for 24 h, then treated with 6-OAP for 48 h. Cell proliferation was determined by MTT assay. Cell viability was estimated by trypan blue dye exclusion.
Figure 5 6-OAP overcomes the protective effects of IL-6, IGF-I and BMSCs on MM cells. (A and B) MM.1S cells were cultured for 48 h with indicated concentrations of 6-OAP at the presence or absence of IL-6 (A) or IGF-I (B). Cell proliferation was assessed by MTT assay. (C) MM.1S and/or BMSCs cells were cultured for 48 h with indicated concentrations of 6-OAP. Cell proliferation was assessed by MTT assay. *p<.01,** p<.05. (D) MM.1S cells were serum starved for 2 h, then co-cultured without or with 6-OAP at 5 µM for 12 h, followed by stimulation with IL-6 at 10 ng/ml for indicated time points (upper panel), or IL-6 at 10 ng/ml for 1 h, followed by treatment with 6-OAP at indicated concentration for 12 h (lower panel). Whole-cell extracts were prepared and examined by Western blotting using antibodies against pJak2, pStat3, Stat3 or β-actin. (E) MM.1S cells were serum starved for 2 h, then co-cultured without or with 6-OAP (5 µM) for 12 h, followed by stimulation with IGF-I at 50 ng/ml for indicated time points (upper panel), or stimulated with IGF-I at 50 ng/ml for 1 h, followed by treatment with 6-OAP at indicated concentration for 12 h (lower panel). Whole-cell extracts were prepared and examined by western blotting using antibodies against pPDK1, pAkt, Akt or β-actin. (F) MM.1S cells were serum starved for 2 h, then co-cultured without or with 6-OAP (5 µM) for 12 h, followed by stimulation with TNF-α at 5 ng/ml for indicated time points. Whole-cell extracts were prepared and examined by Western blotting using indicated antibodies.

[2] = test system: human colorectum, liver, stomach, lung, and skin tumor cells; set-up: method as in PMID 20183316; conditions: preliminary data; cited from earlier work
[3] = test system: pAkt; test: Western blotting, IGF-I stimulation; format: cell-based, human; conditions: MM.1S; 6-OAP 7.5 µM for 12 h; IGF-I 50 ng/ml
Method: (§1) Cell pellets were lysed in RIPA buffer containing 50 mM Tris pH 8.0, 150 mM NaCl, 0.1% SDS, 0.5% deoxycholate, 1% NP-40, 1 mM DTT, 1 mM NaF, 1 mM sodium vanadate, and protease inhibitors cocktail (Sigma). For immunoprecipitations, cells were lysed on ice for 15 minutes in RIPA buffer. Lysates were centrifuged. The supernatant was incubated with indicated antibodies overnight, after which protein A/G Plus beads (Santa Cruz Biotechnology) were added and incubated for 3 h. The beads were washed 4 times in RIPA buffer. Then the beads were resuspended in 1× sample buffer and boiled for 3 min. Protein extracts were quantitated and loaded on 8% to 12% sodium dodecyl sulfate polyacrylamide gel, electrophoresed, and transferred to a nitrocellulose membrane (Whatman). The membrane was incubated with primary antibody, washed, and incubated with horseradish peroxidase (HRP)–conjugated secondary antibody (Pierce). Detection was performed by using a chemiluminescent western detection kit (Cell Signaling). […]
(§2) Figure 5 6-OAP overcomes the protective effects of IL-6, IGF-I and BMSCs on MM cells. […] Cell proliferation was assessed by MTT assay. […] Cell proliferation was assessed by MTT assay. *p<.01,** p<.05. […]

[4] = test system: PDK-1; test: Western blotting, IGF-I stimulation; format: cell-based, human; conditions: MM.1S; IGF-I 50 ng/ml
Method: as §1, §2

[5] = test system: cyclin B1; test: Western blotting; format: cell-based, human; conditions: U266, MM.1S and CD138+ primary cells
Method: as §1
(§3) Figure 3 6-OAP accumulates cyclin B1 which is required for mitotic arrest. […] After co-incubation with 6-OAP for 18 h, the cells were then harvested and detected by Leica DMI 400B microscope (D), or analyzed by flow cytometry for the cell cycle distribution (E). To evaluate cell growth, the cells were treated with 6-OAP for indicated time points and analyzed by trypan blue exclusion assay (F). […] (H) U266 cells were treated without or with 7.5 µM 6-OAP for 24 h, and stained with anti-α-tubulin and anti-BubR1 antibodies to visualize microtubules (green), BubR1 (red), and DAPI to counter stained DNA (blue), and analyzed by confocal microscopy. […]

[6] = test system: cyclin D1; test: Western blotting; format: cell-based, human; conditions: U266 and MM1.S cells; 12 to 48 h
Method: as §1, §3

[7] = test system: pCdc2 (Y15); test: Western blotting; format: cell-based, human; conditions: U266, MM.1S and CD138+ primary cells
Method: as §1, §3

Compound: CC=C(C)C(=O)OC1C2C(CC(C)C3C=CC(=O)C31C)OC(=O)C2C (stereo not drawn) [6-OAP, 6-O-angeloylplenolin]
- IGF-I-caused cell proliferation ([1]; IGF-I 10 to 50 ng/ml, 6-OAP 5 to 7.5 µM): abolished IGF-I-caused cell proliferation
- IL-6-promoted proliferation ([1]; IL-6 2 to 10 ng/ml, 6-OAP 5 to 7.5 µM): drastically reversed this effect
- BMSCs-facilitated MM.1S cell expansion ([1]; co-incubation with BMSCs, 6-OAP 5 or 7.5 µM): significantly inhibited this effect
- proliferation of tumor cells [2]: could inhibit proliferation
- IGF-I-induced pAkt expression [3]: inhibited
- phosphorylation of PDK-1 [4]: not affected
- cyclin B1 level [5]: increase of cyclin B1
- cyclin D1 level [6]: down-regulated
- pCdc2 (Y15) level [7]: decrease of tyrosine-15-phosphorylated Cdc2
